# According to US20170296668A1, “METHODS OF INCREASING SOLUBILITY OF POORLY SOLUBLE COMPOUNDS AND METHODS OF MAKING AND USING FORMULATIONS OF SUCH COMPOUND” (VIZURI HEALTH SCIENCES LLC, priority 2009, published 2017):
# Like-named read-outs stand apart in the source and are kept apart here.
# What was measured:
# [1] = Solubility in PEG 400 / PEG 300 via thermal treatment process; conditions: for Flavonoid in Solvent -: PEG-400, HPLC, thermal treatment concentrate; for Jordi PEG400 Results / PEG400 Sol. Conc.: Table III
# Procedure: • The objective of this work was to quantify a total of six different flavonoids in PS80 and PEG-400. The samples were also analyzed qualitatively to look for signs of degradation of the solvents due to the elevated temperatures required of the thermal treatment process. • This project was divided into three distinct phases: method validation/development, quantitation of the individual flavones, and qualitative analysis to look for signs of PS80/PEG400 degradation.
# [2] = cited from earlier work; for Lit. H2O Sol. -: Table III; for WATER SOLUBILITY (mg/ml): saturation concentrations, published sources
# [3] = Solubility in Polysorbate 80 via thermal treatment process; conditions: for Prepared Thermal Treatment Concentration in Polysorbate 80: Table XV; for solubility: polysorbate 80, organic solvent or mixture, thermodynamic from solid; for PS80 Sol. Conc. - / Jordi PS800 Results: Table III; for Flavonoid in Solvent -: PS80, HPLC, thermal treatment concentrate
# Procedure: The concentration of apigenin in A/PS80 was measured by HPLC-MS.
# [4] = Boiling of flavonoid in H2O & PS80 slurry; assay type: physicochemical; conditions: 2. H2O & PS80 slurry boiled; for solubility: water and polysorbate 80 slurry, aqueous with cosolvent or surfactant or cyclodextrin, thermodynamic from solid, read-out: SOLUBLE CONC. RANGE
# [5] = Solubility of concentrates in oil solvents; assay type: physicochemical
# Source text: Borage oil was obtained from Sigma-Aldrich (St. Louis, Mo.) and Mineral Oil, USP, Canola Oil and Jojoba Oil from Spectrum Chemical of New Brunswick, N.J.
# [6] = Aqueous solution clarity: water added to concentrate vs non-concentrate method
# Procedure: (§1) The concentrates were added to water and their aqueous solution characteristics noted.
# [7] = Nonoxynol-9 concentrates via thermal treatment process; assay type: physicochemical; conditions: Table XVI
# Procedure: as §1
# [8] = Solubility in Ceteareth-20 via thermal treatment process; conditions: thermal treatment >200° C.
# [9] = Supersaturation test by addition of a crystal
# [10] = system: EpiDerm tissue; assay type: cell-based; conditions: time to reduce tissue viability to 50%; unaudited values
# Procedure: • The purpose of this study was to compare the acute dermal irritation potential of 5 Apigenin containing formulations using the Epiderm MTT ET50 assay. The time required for a test article to reduce tissue viability to 50%, i.e. ET50, correlates well with the traditional in vivo rabbit skin irritation test • This study was conducted at MB Research Laboratories (Spinnerstown, Pa. to conduct the EpiDerm MTT Assay. EpiDerm tissue was incubated with Api Genesis formulations for 1, 4 and 24 hours (two tissues per time point for each test article). Triton X-100, 1%, was used as positive control. After incubation, the tissues were rinsed to remove test articles and cytotoxicity was determined with MTT dye [3-(4, 5-Dimethylthiazol-2-yl)-2, 5-diphenyltetrazolium bromide, Thiazolyl blue]. Only viable cells are capable of enzymatic reduction of MTT into a purple formazan product that is quantitatively measured following extraction from the tissue.
# [11] = PS80, 1. Thermal Treatment method
compound,measurement,setting,value
COc1ccc([C@@H]2CC(=O)c3c(O)cc(O[C@@H]4O[C@H](CO[C@@H]5O[C@@H](C)[C@H](O)[C@@H](O)[C@H]5O)[C@@H](O)[C@H](O)[C@H]4O)cc3O2)cc1O [Hesperidin],Molar Ratio PEG400/API (mole/mole),[1],21.2 mole/mole
same,Flavonoid in Solvent -,[1],81.0 ± 8.0 mg/mL
same,Jordi PEG400 Results,[1]; thermal treatment,81 mg/mL
same,Lit. H2O Sol. -,[2],0.05 to 3 mg/mL
same,WATER SOLUBILITY (mg/ml),[2],from 0.05 to 3 mg/ml
same,SOLUBLE CONC. RANGE,[3]; [11],< 20 mg/mL
same,SOLUBLE CONC. RANGE,[4],< 10 mg/mL
same,SOLUBLE CONC. RANGE (% wt/wt),[4],< 1%
"O=c1cc(-c2ccc(O)c(O)c2)oc2cc(O)cc(O)c12 [Luteolin, 3′,4′,5,7-tetrahydroxyflavone]",solubility in the test oils,"[5]; mineral, jojoba, canola, borage oils",insoluble
same,concentration of concentrate in polyglyceryl-4 oleate,[5]; room temperature,10000 µg/mL
same,"non-concentrate method: compound, nonoxynol-9 and 17 ml water heated to near boiling, cooled",[6],did precipitate
same,Comments when 17 ml of H2O was added to 3 gms of the concentrate,[6]; Nonoxynol-9 concentrate,A clear soln formed.
same,"non-concentrate method: compound, polysorbate 80 and 17 ml water heated to near boiling, cooled",[6],did precipitate
same,Comments when 17 ml of H2O was added to 3 gms of the concentrate,[6]; Polysorbate 80 concentrate,A clear soln formed.
same,Prepared Thermal Treatment Concentration in Nonoxynol-9,[7],50 mg/mL
same,Molar Ratio PEG400/API (mole/mole),[1],11.1 mole/mole
same,Flavonoid in Solvent -,[1],72.5 mg/mL
same,Jordi PEG400 Results,[1]; thermal treatment,72.5 mg/mL
same,PEG400 Sol. Conc.,[1]; thermal treatment,70 to 90 mg/mL
same,Lit. H2O Sol. -,[2],0.38 mg/mL
same,Literature Solubility in H2O @ 25° C.,[2]; Table XV,0.14 mg/mL
same,Literature Solubility in H2O @ 25° C.,[2]; Table XVI,0.14 mg/mL
same,SOLUBLE CONC. RANGE (% wt/wt),[3]; [11],> 8%
same,Prepared Thermal Treatment Concentration in Polysorbate 80,[3],50 mg/mL
same,solubility,[3],> 80 mg/mL
same,PS80 Sol. Conc. -,[3]; thermal treatment,>80 mg/mL
same,Conc. In Ceteareth-20,[8],~10000 µg/mL
same,SOLUBLE CONC. RANGE (% wt/wt),[4],≤ 5%
same,solubility,[4],≤ 50 mg/mL
"Cc1cccc(Nc2ccccc2C(=O)O)c1C [Mefenamic Acid, reference compound]","non-concentrate method: compound, nonoxynol-9 and 17 ml water heated to near boiling, cooled",[6],did precipitate
same,Comments when 17 ml of H2O was added to 3 gms of the concentrate,[6]; Nonoxynol-9 concentrate,A clear soln formed.
same,PEG400 Solubility: behaviour when H2O was added,[6]; PEG400 solution + H2O,Nost Mefenamic Acid ppt. out when H2O was added
same,PS80 Solubility: behaviour when H2O was added,[6]; PS80 solution + H2O,Nost Mefenamic Acid dissolved when H2O was added
same,"non-concentrate method: compound, polysorbate 80 and 17 ml water heated to near boiling, cooled",[6],did precipitate
same,Comments when 17 ml of H2O was added to 3 gms of the concentrate,[6]; Polysorbate 80 concentrate,A clear soln formed.
same,Prepared Thermal Treatment Concentration in Nonoxynol-9,[7],10 mg/mL
same,"PEG400 Solubility: amount solubilized, remained solubilized @ Room Temp.",[1]; thermal treatment,1 wt %
same,Literature Solubility in H2O @ 25° C.,[2]; Table XV,0.004 mg/mL
same,Literature Solubility in H2O @ 25° C.,[2]; Table XVI,0.004 mg/mL
same,Prepared Thermal Treatment Concentration in Polysorbate 80,[3],10 mg/mL
same,"PS80 Solubility: amount solubilized, remained solubilized @ Room Temp.",[3]; thermal treatment,1 wt %
same,PEG400 Solubility: supersaturation,[9]; PEG400 solution,Not Sup. Sat.
same,PS80 Solubility: supersaturation,[9]; PS80 solution,Not Sup. Sat.
O=c1c(O)c(-c2ccc(O)c(O)c2)oc2cc(O)cc(O)c12 [Quercetin],PEG400 Sol. Conc.,[1]; thermal treatment,60 to 80 mg/mL
same,Lit. H2O Sol. -,[2],<1 mg/mL
same,WATER SOLUBILITY (mg/ml),[2],*<1 mg/ml
same,SOLUBLE CONC. RANGE (% wt/wt),[3]; [11],> 7%
same,Flavonoid in Solvent -,[3],65.0 mg/mL
same,solubility,[3],> 70 mg/mL
same,Jordi PS800 Results,[3]; thermal treatment,65 mg/mL
same,PS80 Sol. Conc. -,[3]; thermal treatment,>80 mg/mL
same,Conc. In Ceteareth-20,[8],~10000 µg/mL
same,supersaturation in Ceteareth-20,[9]; Room Temp.,solubilization. Not Super Saturated at Room Temp. via
same,SOLUBLE CONC. RANGE (% wt/wt),[4],<<7%
Oc1ccc(C=Cc2cc(O)cc(O)c2)cc1 [Resveratrol],PEG400 Sol. Conc.,[1]; thermal treatment,80 to 100 mg/mL
same,WATER SOLUBILITY (mg/ml),[2],*0.1 to 0.3 mg/ml
same,SOLUBLE CONC. RANGE (% wt/wt),[3]; [11],> 8%
same,Flavonoid in Solvent -,[3],127.5 mg/mL
same,solubility,[3],> 80 mg/mL
same,Jordi PS800 Results,[3]; thermal treatment,127.5 mg/mL
same,PS80 Sol. Conc. -,[3]; thermal treatment,>80 mg/mL
C[C@@H]1O[C@@H](OC[C@H]2O[C@@H](Oc3c(-c4ccc(O)c(O)c4)oc4cc(O)cc(O)c4c3=O)[C@H](O)[C@@H](O)[C@@H]2O)[C@H](O)[C@H](O)[C@H]1O [Rutin],SOLUBLE CONC. RANGE (% wt/wt),[3]; [11],< 1%
same,Flavonoid in Solvent -,[3],14.3 mg/mL
same,solubility,[3],< 10 mg/mL
same,solubility,[4],< 15 mg/mL
Triton X-100,ET50,[10],5.9 h
